Measured values from patent US10449216B2, “Modulating drug effects against metabotropic glutamate receptor with extracellular calcium” (GEORGIA STATE UNIVERSITY RESEARCH FOUNDATION, INC., priority 2013, dated 2019).

Columns and labels:
[1] = molecular target: T1, mGluR1α D322I (Rattus norvegicus, UniProt P23385, D322I); assay: [^3H]-L-Quis binding to membranes of HEK293 cells expressing D322I; conditions: in the presence of 30 nM [^3H]-L-Quis, read-out: KD, [Ca^2+]o-binding affinity of mGluR1α
T1 construct: expressed in transfected cells; host or cells: HEK293

[2] = molecular target: T2, mGluR1α E325I (Rattus norvegicus, UniProt P23385, E325I); assay: [^3H]-L-Quis binding to membranes of HEK293 cells expressing E325I; conditions: with 300 nM [^3H]-L-Quis, read-out: KD, [Ca^2+]o-binding affinity of mGluR1α
T2 construct: expressed in transfected cells; host or cells: HEK293

[3] = molecular target: mGluR1 (Rattus norvegicus, UniProt P23385); assay: Fura-2 intracellular calcium release in mGluR1-transfected HEK293 cells (Example 4); assay type: cell-based; parameters: expressed in transfected cells; host or cells: HEK293; conditions: 3 mM/6 mM calcium, after wash with 0 mM calcium
[4] = molecular target: T3, WT mGluR1α (Rattus norvegicus, UniProt P23385); assay: Single cell Fura-2 [Ca^2+]i response in HEK293 cells transiently transfected with WT mGluR1α; assay type: cell-based; conditions: for Response to [Ca^2+]o: Maximal Response / Max. Res. to Ca^2+: normalized to maximal response of WT mGluR1α to L-Glu
T3 construct: expressed in transfected cells; host or cells: HEK293

[5] = molecular target: mGluR5 (Rattus norvegicus, UniProt P31424); assay: Intracellular Ca^2+ response/oscillation in mGluR5 transfected HEK293 cells; assay type: cell-based; parameters: expressed in transfected cells; host or cells: HEK293; conditions: no other agonist
Experimental: HEK293 cells were fed on a Dulbecco's Modified Eagle Medium (DMEM) and 10% fetal bovine serum (Invitrogen) and cultured at 37° C. in a humidified incubator with 5% CO2. One day before transfection, HEK293 cells were grown on 22×44 mm coverslips and then were transfected with mGluR5 plasmid (received as a gift from Dr. Randy Hall, Emory University, Atlanta, Ga.) with the aid of lipofectamine 2000 (Invitrogen). mGluR5 transfected HEK293 cells were grown for 48 hours and then loaded with 4 µM Fura-2 AM in loading buffer containing 10 mM HEPES (pH 7.4), 140 mM NaCl, 5 mM KCl, 0.55 mM MgCl2 for 30 minutes at 37° C. The coverslips were then mounted in a bathing chamber on the stage of a fluorescence microscope. […] The ratio of fluorescence emitted at 510 nm resulting from excitation at 340 or 380 nm was analyzed to obtain the [Ca^2+]i response as a function of changes in [Ca^2+]o.
HEK293 cells were cultured and transfected as described above. Intracellular Ca^2+ concentration was recorded using the method as described previously. […]

[6] = molecular target: T3, WT mGluR1α; assay: [^3H]-L-Quis binding to membranes of HEK293 cells expressing WT mGluR1α

T3 sequence (P23385 19-1199): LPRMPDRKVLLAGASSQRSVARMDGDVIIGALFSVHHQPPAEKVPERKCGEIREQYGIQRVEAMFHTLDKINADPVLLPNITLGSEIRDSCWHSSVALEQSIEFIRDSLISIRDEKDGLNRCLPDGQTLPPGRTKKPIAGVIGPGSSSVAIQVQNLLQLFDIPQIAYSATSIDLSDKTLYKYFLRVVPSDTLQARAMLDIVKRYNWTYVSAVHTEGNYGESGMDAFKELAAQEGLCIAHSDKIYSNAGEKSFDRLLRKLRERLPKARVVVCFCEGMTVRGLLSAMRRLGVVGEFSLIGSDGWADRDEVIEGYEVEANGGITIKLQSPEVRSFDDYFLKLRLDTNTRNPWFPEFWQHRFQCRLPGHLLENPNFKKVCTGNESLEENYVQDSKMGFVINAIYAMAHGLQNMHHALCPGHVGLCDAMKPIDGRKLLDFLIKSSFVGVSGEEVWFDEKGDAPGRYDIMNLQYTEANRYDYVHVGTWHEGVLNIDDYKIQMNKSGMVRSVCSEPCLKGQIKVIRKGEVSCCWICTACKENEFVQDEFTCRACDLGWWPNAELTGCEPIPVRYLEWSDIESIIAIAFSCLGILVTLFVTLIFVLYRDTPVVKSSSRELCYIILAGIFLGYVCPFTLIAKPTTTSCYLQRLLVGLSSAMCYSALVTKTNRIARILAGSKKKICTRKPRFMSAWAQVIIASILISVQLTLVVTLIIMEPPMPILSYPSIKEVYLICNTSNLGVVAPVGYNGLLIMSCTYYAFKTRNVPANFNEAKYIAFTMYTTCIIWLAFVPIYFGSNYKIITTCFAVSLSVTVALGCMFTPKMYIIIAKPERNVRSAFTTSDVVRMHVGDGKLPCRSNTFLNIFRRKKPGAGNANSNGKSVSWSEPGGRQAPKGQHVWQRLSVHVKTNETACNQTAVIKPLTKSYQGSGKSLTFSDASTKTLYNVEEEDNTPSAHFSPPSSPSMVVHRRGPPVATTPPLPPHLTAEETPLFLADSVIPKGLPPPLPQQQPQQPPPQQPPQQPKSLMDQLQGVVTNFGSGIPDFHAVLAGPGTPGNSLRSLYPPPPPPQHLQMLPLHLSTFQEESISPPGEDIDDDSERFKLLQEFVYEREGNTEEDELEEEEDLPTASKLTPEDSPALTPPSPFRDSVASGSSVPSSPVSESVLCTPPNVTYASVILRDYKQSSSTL
T1 sequence (P23385 19-1199 D322I): as the sequence (P23385 19-1199) above, with D304I counted along it
Chain of mGluR5 (P31424 21-1203): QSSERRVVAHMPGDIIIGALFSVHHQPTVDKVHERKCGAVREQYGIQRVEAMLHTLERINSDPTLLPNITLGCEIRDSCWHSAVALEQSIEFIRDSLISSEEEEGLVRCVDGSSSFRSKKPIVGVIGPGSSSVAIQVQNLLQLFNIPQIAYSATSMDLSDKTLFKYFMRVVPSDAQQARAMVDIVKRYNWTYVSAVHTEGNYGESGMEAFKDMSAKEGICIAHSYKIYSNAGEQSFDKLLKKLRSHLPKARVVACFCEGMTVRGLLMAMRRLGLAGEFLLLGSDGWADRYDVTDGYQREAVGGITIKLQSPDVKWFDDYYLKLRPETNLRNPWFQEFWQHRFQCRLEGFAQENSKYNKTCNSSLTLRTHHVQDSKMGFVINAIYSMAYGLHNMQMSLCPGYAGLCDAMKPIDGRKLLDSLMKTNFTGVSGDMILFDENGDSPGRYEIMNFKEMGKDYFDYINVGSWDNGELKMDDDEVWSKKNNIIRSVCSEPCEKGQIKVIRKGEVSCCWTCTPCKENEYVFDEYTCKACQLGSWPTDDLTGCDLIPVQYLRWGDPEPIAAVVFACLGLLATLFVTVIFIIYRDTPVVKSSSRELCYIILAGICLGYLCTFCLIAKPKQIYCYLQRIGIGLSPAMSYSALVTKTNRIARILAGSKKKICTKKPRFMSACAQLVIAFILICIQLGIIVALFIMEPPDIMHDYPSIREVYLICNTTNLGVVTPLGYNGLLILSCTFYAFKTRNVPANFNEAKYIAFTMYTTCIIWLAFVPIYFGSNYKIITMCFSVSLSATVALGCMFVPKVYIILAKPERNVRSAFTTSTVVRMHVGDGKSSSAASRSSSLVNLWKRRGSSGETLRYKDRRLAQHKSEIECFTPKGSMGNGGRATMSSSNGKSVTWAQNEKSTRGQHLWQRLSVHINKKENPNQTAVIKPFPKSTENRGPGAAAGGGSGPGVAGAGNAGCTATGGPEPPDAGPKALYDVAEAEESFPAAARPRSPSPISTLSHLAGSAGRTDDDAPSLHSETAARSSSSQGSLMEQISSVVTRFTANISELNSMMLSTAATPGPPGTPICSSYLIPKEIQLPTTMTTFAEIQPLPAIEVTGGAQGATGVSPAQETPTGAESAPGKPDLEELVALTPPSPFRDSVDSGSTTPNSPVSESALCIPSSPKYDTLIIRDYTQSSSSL
Chain of mGluR1 (P23385 19-1199): as the sequence (P23385 19-1199) above
T2 sequence (P23385 19-1199 E325I): as the sequence (P23385 19-1199) above, with E307I counted along it

Kd [1]: 0.6 mM
Kd [2]: > 20 mM
Activation of mGluR1 by calcium alone [3]: no response was observed
Fold increase of the EC50 for [Ca^2+]o ([4]; 0 versus 0.5 mM MCPG): ~1.7 fold
EC50 ([4]; 40 μM CPCCOEt, read-out: EC50 of mGluR1α for [Ca^2+]o): 28700 µM
Response to [Ca^2+]o: nHill ([4]; 0.5 mM (s)-MCPG): 2.6
Response to [Ca^2+]o: Maximal Response ([4]; 0.5 mM (s)-MCPG): 67 ± 2
EC50 ([4]; 0.5 mM (s)-MCPG, read-out: Response to [Ca^2+]o: EC50): 6000 µM
Response to [Ca^2+]o: nHill ([4]; (s)-MCPG 0): 6.4
Response to [Ca^2+]o: Maximal Response ([4]; (s)-MCPG 0): 85 ± 2
EC50 ([4]; (s)-MCPG 0, read-out: Response to [Ca^2+]o: EC50): 3500 µM
Response to [Ca^2+]o: nHill ([4]; CPCCOEt 0): 6.4
Response to [Ca^2+]o: Maximal Response ([4]; CPCCOEt 0): 85 ± 2%
EC50 ([4]; CPCCOEt 0, read-out: Response to [Ca^2+]o: EC50): 3500 µM
Response to [Ca^2+]o: nHill ([4]; CPCCOEt Conc. 5 (μM)): 1.3
Response to [Ca^2+]o: Maximal Response ([4]; CPCCOEt Conc. 5 (μM)): 75 ± 3%
EC50 ([4]; CPCCOEt Conc. 5 (μM), read-out: Response to [Ca^2+]o: EC50): 7600 µM
Response to [Ca^2+]o: nHill ([4]; CPCCOEt Conc. 40 (nM)): 1.1
Response to [Ca^2+]o: Maximal Response ([4]; CPCCOEt Conc. 40 (nM)): 60 ± 3%
Max. Res. to Ca^2+ ([4]; Ro 67-4853 0 nM): 85 ± 2
EC50 ([4]; Ro 67-4853 0 nM, read-out: EC50 of Ca^2+): 3500 µM
Max. Res. to Ca^2+ ([4]; Ro 67-4853 30 nM): 83 ± 6
EC50 ([4]; Ro 67-4853 30 nM, read-out: EC50 of Ca^2+): 2100 µM
Max. Res. to Ca^2+ ([4]; Ro 67-4853 300 nM): 83 ± 2
EC50 ([4]; Ro 67-4853 300 nM, read-out: EC50 of Ca^2+): 700 µM
EC50 ([4]; in the presence of 5 μM CPCCOEt, read-out: EC50 of mGluR1α for [Ca^2+]o): 14700 µM
Extracellular Ca^2+ concentration change that started to induce intracellular oscillation [5]: 0.05 mM
Kd ([6]; WT, in the presence of 30 nM [^3H]-L-Quis, read-out: KD, [Ca^2+]o-binding affinity of mGluR1α): 0.3 mM
EC50 ([6]; wild type receptor, read-out: EC50 of [Ca^2+]o for enhancing L-Quis-binding): ~0.3 mM
SMILES: [Ca+2] [[Ca^2+]o]
